Active and inactive are the calls of the source.
Columns and labels:
[1] = biological target: T1, Polyadenylate-binding protein 1 (Homo sapiens, UniProt P11940); assay: PABP1 MLLE–PAM2 interaction inhibitors, dose response, miRNA deadenylation inhibitor project, biochemical, fluorescence polarization, Cy5-PAM2 peptide, secondary (AID 602260); format: functional; settings: read-out: IC50_Mean
[2] = biological target: T1, Polyadenylate-binding protein 1; assay: PABP1 MLLE–PAM2 binding inhibitor potency, dose response, biochemical, fluorescence polarization, FITC-PAM2 peptide (AID 602259); format: functional; settings: read-out: IC50_Mean
[3] = biological target: Cytochrome P450 2D6 (Homo sapiens, UniProt P10635);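 further: CYP2D6 member of a cytochrome P450 panel assay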
[4] = biological target: Cytochrome P450 3A4 (Homo sapiens, UniProt P08684);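 further: CYP3A4 tested as one member of a cytochrome P450 panel screen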
[5] = biological target: Cytochrome P450 2C19 (Homo sapiens, UniProt P33261); assay: Cytochrome panel assay with activity outcomes. Panel member name: p450-cyp2c19 Compounds with AC50 equal or less than 10 uM are considered active; format: functional; settings: read-out: AC50
[6] = biological target: Cytochrome P450 2C9 (Homo sapiens, UniProt P11712)
[7] = tested on: Vero; assay: cells; format: functional; settings: Chlorocebus sabaeus
[8] = biological target: T2, Heat shock factor protein 1 (Mus musculus, UniProt P38532); assay: HSF1 potentiators in luciferase reporter cells, confirmation, cell-based, NIH3T3, luminescence, dose retest (AID 435004); format: functional;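 further: stress induced by proteasome inhibitor MG132 added 30 min after compound; luciferase reporter driven by HSF1 response element in NIH3T3 cells; actives raise luminescence as potentiators of the MG132 stress response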
T2 sequence (P38532 whole entry): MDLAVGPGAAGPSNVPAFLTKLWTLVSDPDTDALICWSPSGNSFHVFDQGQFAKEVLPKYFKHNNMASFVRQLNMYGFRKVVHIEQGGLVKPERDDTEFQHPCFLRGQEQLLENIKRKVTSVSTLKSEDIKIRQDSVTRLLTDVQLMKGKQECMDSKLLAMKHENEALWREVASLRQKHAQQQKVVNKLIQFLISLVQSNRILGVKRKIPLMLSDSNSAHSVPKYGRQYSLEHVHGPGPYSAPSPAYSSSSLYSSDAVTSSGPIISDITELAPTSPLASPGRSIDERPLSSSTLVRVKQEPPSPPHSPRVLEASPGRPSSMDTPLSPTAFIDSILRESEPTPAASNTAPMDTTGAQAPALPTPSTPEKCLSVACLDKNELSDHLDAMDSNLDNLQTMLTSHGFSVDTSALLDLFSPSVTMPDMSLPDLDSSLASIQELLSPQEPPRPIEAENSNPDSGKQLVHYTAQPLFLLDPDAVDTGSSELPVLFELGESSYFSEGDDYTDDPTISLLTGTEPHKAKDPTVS

[9] = biological target: T3, Cytochrome P450 1A2 (Homo sapiens, UniProt P05177);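 further: PubChem cytochrome P450 panel assay, CYP1A2 panel member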
T3 sequence (P05177 whole entry): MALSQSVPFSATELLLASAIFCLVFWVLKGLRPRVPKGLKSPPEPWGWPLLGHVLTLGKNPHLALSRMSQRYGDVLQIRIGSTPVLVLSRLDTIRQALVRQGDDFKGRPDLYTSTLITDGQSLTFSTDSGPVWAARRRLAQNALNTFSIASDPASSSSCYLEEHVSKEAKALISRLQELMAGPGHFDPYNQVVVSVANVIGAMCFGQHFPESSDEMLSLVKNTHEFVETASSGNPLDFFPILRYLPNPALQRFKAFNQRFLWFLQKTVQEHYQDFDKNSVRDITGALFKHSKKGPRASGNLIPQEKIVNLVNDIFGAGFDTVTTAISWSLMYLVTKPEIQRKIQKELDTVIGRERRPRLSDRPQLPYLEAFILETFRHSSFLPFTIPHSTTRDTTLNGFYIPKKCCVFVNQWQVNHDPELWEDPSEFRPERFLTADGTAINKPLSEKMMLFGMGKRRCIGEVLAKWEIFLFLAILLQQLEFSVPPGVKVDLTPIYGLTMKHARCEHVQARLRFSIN

Sequence of Cytochrome P450 2C19 (P33261 whole entry): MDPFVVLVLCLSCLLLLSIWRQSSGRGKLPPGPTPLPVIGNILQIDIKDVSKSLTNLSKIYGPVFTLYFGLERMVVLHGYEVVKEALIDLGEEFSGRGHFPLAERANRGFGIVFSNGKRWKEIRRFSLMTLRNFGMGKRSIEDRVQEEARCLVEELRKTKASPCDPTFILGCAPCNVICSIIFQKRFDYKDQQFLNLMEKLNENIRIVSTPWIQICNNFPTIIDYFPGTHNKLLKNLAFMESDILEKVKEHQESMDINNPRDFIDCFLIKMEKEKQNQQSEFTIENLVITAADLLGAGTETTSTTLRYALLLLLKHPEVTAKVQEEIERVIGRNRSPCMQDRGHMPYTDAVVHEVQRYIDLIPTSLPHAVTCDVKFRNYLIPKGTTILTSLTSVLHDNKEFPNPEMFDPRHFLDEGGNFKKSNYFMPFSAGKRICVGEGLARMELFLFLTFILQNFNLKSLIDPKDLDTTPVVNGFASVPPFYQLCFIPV
Sequence of Cytochrome P450 2D6 (P10635 whole entry): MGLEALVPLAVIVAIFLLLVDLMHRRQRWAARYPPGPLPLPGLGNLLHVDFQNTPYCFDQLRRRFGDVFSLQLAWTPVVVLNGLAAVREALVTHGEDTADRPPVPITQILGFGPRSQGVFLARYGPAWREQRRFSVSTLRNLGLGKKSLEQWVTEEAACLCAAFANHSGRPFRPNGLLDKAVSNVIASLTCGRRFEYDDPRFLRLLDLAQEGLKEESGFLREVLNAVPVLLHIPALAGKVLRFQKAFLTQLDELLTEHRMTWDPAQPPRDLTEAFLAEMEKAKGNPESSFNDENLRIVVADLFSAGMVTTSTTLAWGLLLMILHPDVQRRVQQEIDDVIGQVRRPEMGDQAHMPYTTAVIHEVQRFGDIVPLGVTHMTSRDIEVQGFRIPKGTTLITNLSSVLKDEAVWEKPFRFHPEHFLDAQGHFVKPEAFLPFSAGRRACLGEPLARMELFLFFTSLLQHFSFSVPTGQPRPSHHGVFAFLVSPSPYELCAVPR
Sequence of Cytochrome P450 3A4 (P08684 whole entry): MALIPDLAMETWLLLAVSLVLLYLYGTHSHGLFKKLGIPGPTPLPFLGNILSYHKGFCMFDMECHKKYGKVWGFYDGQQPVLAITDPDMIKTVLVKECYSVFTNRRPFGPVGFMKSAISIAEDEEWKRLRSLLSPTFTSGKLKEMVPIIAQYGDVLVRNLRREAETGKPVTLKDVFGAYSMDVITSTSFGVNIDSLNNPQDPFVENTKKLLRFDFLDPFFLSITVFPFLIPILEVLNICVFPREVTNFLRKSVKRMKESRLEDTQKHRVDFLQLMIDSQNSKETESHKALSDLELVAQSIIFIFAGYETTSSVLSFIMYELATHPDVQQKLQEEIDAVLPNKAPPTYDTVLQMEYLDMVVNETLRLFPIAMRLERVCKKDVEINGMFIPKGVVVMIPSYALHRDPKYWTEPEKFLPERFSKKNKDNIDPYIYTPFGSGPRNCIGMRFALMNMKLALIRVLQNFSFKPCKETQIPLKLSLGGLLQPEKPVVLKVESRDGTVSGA
T1 sequence (P11940 whole entry): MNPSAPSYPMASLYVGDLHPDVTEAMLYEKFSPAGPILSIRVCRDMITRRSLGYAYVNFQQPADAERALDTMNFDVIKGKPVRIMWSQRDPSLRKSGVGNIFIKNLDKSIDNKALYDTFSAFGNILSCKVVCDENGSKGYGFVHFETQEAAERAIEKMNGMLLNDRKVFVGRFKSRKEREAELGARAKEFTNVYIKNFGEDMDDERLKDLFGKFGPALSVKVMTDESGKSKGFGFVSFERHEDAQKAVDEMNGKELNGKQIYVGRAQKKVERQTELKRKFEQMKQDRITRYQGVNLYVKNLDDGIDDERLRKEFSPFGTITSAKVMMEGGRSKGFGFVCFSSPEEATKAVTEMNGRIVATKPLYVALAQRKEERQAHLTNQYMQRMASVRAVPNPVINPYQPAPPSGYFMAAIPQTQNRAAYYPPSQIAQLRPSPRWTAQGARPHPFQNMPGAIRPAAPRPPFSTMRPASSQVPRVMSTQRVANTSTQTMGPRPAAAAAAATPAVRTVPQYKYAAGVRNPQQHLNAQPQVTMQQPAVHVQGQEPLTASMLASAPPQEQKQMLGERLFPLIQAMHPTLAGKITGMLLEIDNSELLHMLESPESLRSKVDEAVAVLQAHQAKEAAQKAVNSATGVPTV
Sequence of Cytochrome P450 2C9 (P11712 whole entry): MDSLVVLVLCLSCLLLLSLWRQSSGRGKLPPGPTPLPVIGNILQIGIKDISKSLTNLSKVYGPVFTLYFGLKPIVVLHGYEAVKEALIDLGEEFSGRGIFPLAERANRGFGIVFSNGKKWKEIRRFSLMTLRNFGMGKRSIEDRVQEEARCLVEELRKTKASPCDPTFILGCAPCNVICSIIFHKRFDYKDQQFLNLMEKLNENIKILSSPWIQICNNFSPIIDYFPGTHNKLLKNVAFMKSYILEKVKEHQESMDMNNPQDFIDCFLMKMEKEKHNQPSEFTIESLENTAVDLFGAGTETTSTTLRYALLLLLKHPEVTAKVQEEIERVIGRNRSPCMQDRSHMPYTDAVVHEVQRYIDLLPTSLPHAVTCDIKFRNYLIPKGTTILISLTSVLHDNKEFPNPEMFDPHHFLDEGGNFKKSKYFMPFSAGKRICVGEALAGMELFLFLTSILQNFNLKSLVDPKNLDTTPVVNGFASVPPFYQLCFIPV

Compound: O=C(CSc1nccc(=O)[nH]1)N1CCCc2ccccc21
- IC50 [1]: > 66 µM (inactive)
- IC50 [2]: > 66 µM (inactive)

Compound: N=c1n(-c2ccccc2)c(O)cc(=O)n1-c1ccccc1
- AC50 [3]: 22.4 µM (inconclusive)
- AC50 [4]: 25.1 µM (inconclusive)

Compound: COC(=O)c1c(NC(=O)c2ccc(C)o2)sc2c1CCCCC2
- IC50 [1]: > 66 µM (inactive)
- IC50 [2]: > 66 µM (inactive)

Compound: COc1ccc(-c2nnn(Cc3nc(N)nc(N4CCOCC4)n3)n2)cc1OC
- AC50 [5]: 35.5 µM (inconclusive)
- AC50 [3]: 12.6 µM (inconclusive)
- AC50 [4]: 28.2 µM (inconclusive)
- AC50 [6]: 25.1 µM (inconclusive)

Compound: CC1C(=O)N(Cc2cn(Cc3ccco3)nn2)CCS(=O)(=O)N1Cc1ccc(-c2ccccc2)cc1 (centres undefined)
- CC50 [7]: > 25 µM (active)

Compound: COc1ccc(OC)c(/C=C/C(=O)c2ccc3c(c2)OCCO3)c1
- CC50 [7]: 18.8 µM (active)

Compound: Fc1cc(NCc2ccccc2)nc(NCc2ccccc2)n1
- EC50 [8]: 91.1 µM (active)

Compound: NNC(=O)C1C(O)CCC2CN3CCc4c([nH]c5ccccc45)C3CC21 (centres undefined)
- CC50 [7]: > 25 µM (active)

Compound: CO/N=C1/c2cc(OC)ccc2O[C@@H](c2cccc(OC)c2)[C@H]1O
- AC50 [5]: 3.98 µM (inconclusive)
- AC50 [3]: 3.16 µM (inconclusive)
- AC50 [4]: 6.31 µM (inconclusive)

Compound: CCCN1C2=NCCCN2c2ccccc21
- AC50 [5]: 20 µM (inconclusive)
- AC50 [4]: 35.5 µM (inconclusive)

Compound: O=C(CSc1ncn(-c2ccccc2)n1)Nc1ccc2c(c1)OCCO2
- IC50 [1]: > 66 µM (inactive)
- IC50 [2]: > 66 µM (inactive)

Compound: CCOC(=O)/C(C#N)=C1/SC(CC)C(=O)N1c1ccc(Br)cc1 (centres undefined)
- AC50 [3]: 11.2 µM (inconclusive)
- AC50 [9]: 31.6 µM (inconclusive)
- AC50 [4]: 28.2 µM (inconclusive)

Compound: COc1ccc(Nc2ccc([N+](=O)[O-])cn2)cn1
- IC50 [1]: > 66 µM (inactive)
- IC50 [2]: 59.6 µM (inactive)

Compound: Cc1ccnc(N2CCCC(C(=O)Nc3ccc(C)c(C)c3)C2)n1 (centres undefined)
- EC50 [8]: > 260 µM (inactive)

Compound: Cc1ccccc1NC(=O)OCc1cn(-c2ccc(Cl)cc2)nn1
- AC50 [5]: 8.91 µM (inconclusive)
- AC50 [3]: 0.708 µM (inconclusive)
- AC50 [4]: 0.794 µM (inconclusive)

Compound: CC1=Nc2cc(C(=O)O)ccc2Sc2c(C)ccc(C)c21
- EC50 [8]: > 260 µM (inactive)

Compound: Cc1cc(S(=O)(=O)NCCCN2CCOCC2)ccc1F
- AC50 [5]: 28.2 µM (inconclusive)
- AC50 [4]: 28.2 µM (inconclusive)

Compound: COc1ccc(CNCCc2ccccc2)cc1OCC(N)=O
- AC50 [5]: 6.31 µM (inconclusive)
- AC50 [4]: 17.8 µM (inconclusive)
- AC50 [6]: 0.0282 µM (inconclusive)

Compound: CCC(C)c1ccccc1NC(=O)c1cc(C)no1 (centres undefined)
- EC50 [8]: > 260 µM (inactive)

Compound: COc1ccc(C(=O)NC(=S)Nc2nc(C)c(C(=O)N(C)C)s2)cc1
- IC50 [1]: > 66 µM (inactive)
- IC50 [2]: > 66 µM (inactive)
